In patent publication US20140088187A1, “ANDROGEN RECEPTOR INHIBITORS AND METHODS OF USE THEREOF” (BETH ISRAEL DEACONESS MEDICAL CENTER, priority 2010, published 2014):
Substitutions are numbered along the chain they refer to. Entries after “also recorded” stand apart in the source; their conditions may differ.

Columns and labels:
[1] = target: T1, wildtype AR (Homo sapiens, UniProt P10275); test: AR-responsive firefly luciferase reporter assay in COS7 cells transfected with AR (DHT-stimulated AR activity); assay type: cell-based; settings: for inhibition at 12.5 µM: COS-7, 24 h, read-out: % Angtag (12.5 μM vs. 1 nM DHT)
T1 construct: The AR WT construct expresses full-length human AR under cmv promoter control; expressed in transfected cells; host or cells: COS7
T1 sequence (P10275 1-920): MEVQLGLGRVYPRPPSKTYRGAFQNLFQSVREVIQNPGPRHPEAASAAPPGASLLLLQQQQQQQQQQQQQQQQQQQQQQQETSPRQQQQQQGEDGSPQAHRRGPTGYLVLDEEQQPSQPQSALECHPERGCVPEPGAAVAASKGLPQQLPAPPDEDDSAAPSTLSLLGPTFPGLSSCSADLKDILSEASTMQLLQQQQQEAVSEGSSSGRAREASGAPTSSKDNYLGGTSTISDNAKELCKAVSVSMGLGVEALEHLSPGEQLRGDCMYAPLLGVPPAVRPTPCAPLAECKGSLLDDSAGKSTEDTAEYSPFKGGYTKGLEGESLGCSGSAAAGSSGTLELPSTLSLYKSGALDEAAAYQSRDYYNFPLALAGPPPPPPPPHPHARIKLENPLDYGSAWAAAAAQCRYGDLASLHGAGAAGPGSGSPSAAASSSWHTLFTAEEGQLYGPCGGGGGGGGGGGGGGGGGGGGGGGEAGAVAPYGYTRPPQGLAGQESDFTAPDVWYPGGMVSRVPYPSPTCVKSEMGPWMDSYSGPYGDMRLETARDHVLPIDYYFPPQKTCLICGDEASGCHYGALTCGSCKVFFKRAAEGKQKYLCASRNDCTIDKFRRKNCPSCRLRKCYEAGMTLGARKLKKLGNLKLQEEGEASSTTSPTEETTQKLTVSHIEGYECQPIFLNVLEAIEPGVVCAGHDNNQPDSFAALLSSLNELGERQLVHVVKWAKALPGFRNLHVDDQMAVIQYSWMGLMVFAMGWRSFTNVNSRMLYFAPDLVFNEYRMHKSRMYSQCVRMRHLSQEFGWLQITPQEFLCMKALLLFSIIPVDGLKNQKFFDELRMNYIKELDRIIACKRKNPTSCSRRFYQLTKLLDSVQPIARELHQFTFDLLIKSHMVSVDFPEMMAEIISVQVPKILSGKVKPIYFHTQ
Text: FIG. 13. Antagonist activity of generation 4 compounds at 25 micromolar. […] Reporter firefly luciferase is corrected for control Renilla activity.
FIG. 14. Antagonist activity of generation 4 compounds at 1-10 micromolar. […] Reporter firefly luciferase is corrected for control Renilla activity. […]
(§1) The AR-responsive firefly luciferase reporter consists of 4 tandem repeats of the consensus steroid response element cloned upstream of the pGL3-Basic Luciferase vector (Promega). The AR WT construct expresses full-length human AR under cmv promoter control.
(§2) Luciferase activity was determined using the Dual-Luciferase Reporter Assay System (Promega E1910).

[2] = target: T2, AR in VCaP cells (Homo sapiens, UniProt P10275); test: Immunofluorescence of AR nuclear localization in VCaP cells (CSS medium); assay type: cell-based
T2 construct: endogenous in cells; host or cells: VCaP
T2 sequence (P10275 1-920): T1 sequence (P10275 1-920)
Text: (§3) VCaP cells, derived from a CRPC vertebral metastasis, express substantial levels of AR and AR regulated genes such as PSA even when cultured in steroid depleted medium. […] In additional studies focused on chemotype A compounds, we used immunofluorescence to assess AR nuclear localization.

[3] = target: T3, AR in C4-2 cells (Homo sapiens, UniProt P10275, T878A)
T3 sequence (P10275 1-920 T878A): T1 sequence (P10275 1-920) with T878A

[4] = target: T2, AR in VCaP cells; test: Nuclear AR, total AR protein and PSA expression in VCaP cells in steroid depleted medium; assay type: cell-based
Text: as §3, with “localization. […] In contrast, and consistent with the biochemical fractionation studies noted above, basal nuclear AR was decreased by A61.” for “localization.”
We used the NE-PER Nuclear and Cytoplasmic Extraction Reagents (Pierce 78833).

[5] = target: VP16-AR (Homo sapiens, UniProt P10275)
[6] = target: T4, T877A mutant AR (Homo sapiens, UniProt P10275, T878A); test: T877A mutant AR luciferase reporter assay; assay type: cell-based; settings: HF 100 nM; chemotype A compounds 10 μM
T4 sequence (P10275 1-920 T878A): T1 sequence (P10275 1-920) with T878A
Description: FIG. 6. […] (f) W741C mutant AR response to Bic (10 μM), HF (100 nM), and chemotype A compounds (10 μM). Error bars represent S.E.M.
To further validate the predicted positioning of the compounds in the steroid binding pocket, we also examined the effects of established mutations within the LBD.
as §1, §2

[7] = steroid depleted medium, data not shown

| Compound | inhibition at 12.5 µM [1] | also measured |
| --- | --- | --- |
| O=C(CBr)Nc1ccc(S(=O)(=O)NCc2ccc3c(c2)OCO3)cc1 [Compound 13, N-(4-(N-(Benzo[d][1,3]dioxol-5-ylmethyl)sulfamoyl)phenyl) bromoacetamide] | 70% |  |
| O=C(CCl)Nc1ccc(S(=O)(=O)NCc2ccc3c(c2)OCO3)cc1 [Compound 14, N-(4-(N-(Benzo[d][1,3]dioxol-5-ylmethyl)sulfamoyl)phenyl)chloroacetamide] | 90% |  |
| CC(=O)N(C(C)=O)c1ccc(S(=O)(=O)NCc2ccc3c(c2)OCO3)cc1 [Compound 15, N-acetyl-N-(4-(N-(Benzo[d][1,3]dioxol-5-ylmethyl)sulfamoyl)phenyl) acetamide] |  | % Angtag (12.5 μM vs. 1 nM DHT) ([1]; 12.5 μM compound vs. 1 nM DHT): 85% |
| CS(=O)(=O)Nc1ccc(S(=O)(=O)NCc2ccc3c(c2)OCO3)cc1 [Compound 21, N-(benzo[d][1,3]dioxol-5-ylmethyl)-4-(methylsulfonamido)benzenesulfonamide] | 70% |  |
| CC(C)(C)CC(=O)Nc1ccc(S(=O)(=O)NCc2ccc3c(c2)OCO3)cc1 [Compound 22, N-(4-(N-(Benzo[d][1,3]dioxol-5-ylmethyl)sulfamoyl)phenyl)-3,3-dimethylbutanamide] | 70% |  |
| O=S(=O)(NCc1ccc2c(c1)OCO2)c1ccc(C(F)(F)F)c(N=C=S)c1 [Compound 23, N-(benzo[d][1,3]dioxol-5-ylmethyl)-3-isothiocyanato-4-(trifluoromethyl)benzenesulfonamide] | 75% |  |
| O=S(=O)(NCc1ccc2c(c1)OCO2)c1ccc(F)cc1F [Compound A61, N-(1,3-benzodioxol-5-ylmethyl)-2,4-difluorobenzenesulfonamide] |  | nuclear AR levels by immunofluorescence [2]: decreased; potency in antagonizing AR activity in luciferase reporter assays ([1]; relative to initial chemotype A compounds, data not shown): increased potency; also recorded: relatively higher potency; basal PSA ([3]; 24 hours (FIG. 10a)): decrease in basal PSA; total AR protein levels ([3]; 24 hours (FIG. 10a)): noteworthy decrease; PSA expression [3, 7]: reduced; nuclear AR levels [3, 7]: reduced nuclear AR levels; basal level PSA expression ([4]; 10 μM, steroid depleted medium): further decreasing basal level PSA expression; nuclear AR ([4]; 10 μM, steroid depleted medium): significantly decreased nuclear AR; DHT stimulated PSA expression ([4]; not shown): blocking DHT stimulated PSA expression |
| CC(C)(O)C(=O)Nc1ccc([N+](=O)[O-])c(C(F)(F)F)c1 [hydroxyflutamide] |  | VP16-AR reporter (transcriptional) activity [5]: strong reporter activity; agonist activity on T877A mutant AR [6]: strong agonist |

Further lines, with some results ahead:

| inhibition at 12.5 µM [1] | Compound | also measured |
| --- | --- | --- |
| 20% | O=C(CBr)Nc1cccc(S(=O)(=O)NCc2ccc3c(c2)OCO3)c1 [Compound 17, N-(3-(N-(Benzo[d][1,3]dioxol-5-ylmethyl)sulfamoyl)phenyl)-2-bromoacetamide] |  |
| 0% | O=C(Nc1ccc(S(=O)(=O)NCc2ccc3c(c2)OCO3)cc1)C(F)(F)F [Compound 20, N-(4-(N-(Benzo[d][1,3]-dioxol-5-ylmethyl)sulfamoyl)phenyl)-2,2,2-trifluoroacetamide] |  |
| 50% | CC(=O)c1ccc(S(=O)(=O)NCc2ccc3c(c2)OCO3)cc1OC(F)(F)F [Compound 25, 4-acetyl-N-(benzo[d][1,3]dioxol-5-ylmethyl)-3-(trifluoromethoxy)benzenesulfonamide] |  |
| 60% | CCC(=O)c1cc(S(=O)(=O)NCc2ccc3c(c2)OCO3)ccc1OC(F)(F)F [Compound 29, N-(benzo[d][1,3]dioxol-5-ylmethyl)-3-propionyl-4-(trifluoromethoxy)benzenesulfonamide] |  |
| 20% | NC(=O)c1cc(S(=O)(=O)NCc2ccc3c(c2)OCO3)ccc1OC(F)(F)F [Compound 30, 5-(N-(benzo[d][1,3]dioxol-5-ylmethyl)sulfamoyl)-2-(trifluoromethoxy)benzamide] |  |
| 85% | CS(=O)(=O)c1cc(S(=O)(=O)NCc2ccc3c(c2)OCO3)ccc1OC(F)(F)F [Compound 31, N-(benzo[d][1,3]dioxol-5-ylmethyl)-3-(methylsulfonyl)-4-(trifluoromethoxy)benzenesulfonamide] |  |
| 50% | CC(=O)c1ccc(S(=O)(=O)NCc2ccc3c(c2)OCO3)cc1C(F)(F)F [Compound 32, 4-acetyl-N-(benzo[d][1,3]dioxol-5-ylmethyl)-3-(trifluoromethyl)benzenesulfonamide] |  |
| 20% | CCC(=O)c1ccc(S(=O)(=O)NCc2ccc3c(c2)OCO3)cc1C(F)(F)F [Compound 33, N-(benzo[d][1,3]dioxol-5-ylmethyl)-4-propionyl-3-(trifluoromethyl)benzenesulfonamide] |  |
